In patent publication US20060276468A1, “Wood preservative formulations comprising Imazalil” (priority 2005, published 2006):

System: decay organisms
Experiment: soil contact veneer exposure test: dip-treated Scots pine sapwood veneers half buried in damp compost, pulled by hand weekly until failure
Conditions: for half life, Low level with 0.8% Imazalil sulfate: 0.8% fungicide plus 0.8% imazalil sulfate, IMS; for half life, High level (1.6%) / half life, Low level (0.8%): solutions in IMS; for average time for failure to occur (half life), combination with imazalil sulfate / estimated expected average time for failure, combination with imazalil sulfate / average time for failure to occur (half life): Example 1; for average time for failure to occur (half life), combination with imazalil sulfate: 0.3% dichlorophen, 0.1% triclosan, 0.4% fenarimol or 0.4% PHMB, each plus 0.2% imazalil sulfate; for estimated expected average time for failure, combination with imazalil sulfate: midway between the two single biocides; for average time for failure to occur (half life): biocide alone: 0.6% dichlorophen, 0.2% triclosan, 0.8% fenarimol, 0.8% PHMB, 0.4% imazalil sulfate, 6 veneers; for synergy of the combination with imazalil sulfate: actual versus expected average time to failure
Description: The present invention also provides a simple exposure test for evaluating the wood preserving abilities of candidate ingredients or compositions. This exposure test is based on the premise that small dimension timber test specimens tend to fail more quickly than larger ones in soil contact situations.
It is preferable that the thickness of the veneers be greater than 0.1 mm, as veneers of lesser thickness can often be pulled apart by hand without undergoing exposure to decay organisms. Veneers which are thicker than 0.4 may take an excessive amount of time to fail the exposure test. In one embodiment, the thickness of the veneers is about 0.2 mm and the wood is the sapwood of the Scots pine (Pinus sylvestris). Other woods and thicknesses can be used. […] An example of convenient width and length dimensions are 15×50 mm. However, width and length are not critical provided they are kept consistent within a test, although very large or small length or width dimensions may be difficult to handle.
Accordingly, the test of the present invention comprises testing the integrity of a veneer after exposure to a decay-inducing environment. In one embodiment, this environment is damp compost in which decay organisms are present and water is present at just above the water holding capacity of the compost. If desired, other media can be used, and the test can be conducted at water contents which are below, at, or above the water-holding capacity of the media.
In general, the integrity of the veneer is inversely related to the length of exposure to the decay promoting environment. The integrity of the veneer can be tested by applying a force to the veneer and noting whether or not the veneer breaks. Thus, if wood preservative agents are applied to the veneers, these veneers would be expected to withstand longer exposure to the environment without breaking compared to control veneers without breaking.
The force applied to the veneers is preferably a force which pulls the two ends in opposite directions. The force can be applied by the use of an instrument or manually. If there is significant decay the veneer will break, generally near the junction between the portion submerged in the decay accelerating medium and the portion exposed to air. If the force is applied manually, it is preferable that the same individual conduct the test at the various exposure time points.
The veneers were cut such that both late wood and early wood were present in each veneer. The following biocides were tested: imazalil sulfate, dichlorophen, fenarimol, triclosan, and PHMB. To allow the mixing together of the five selected biocides in any combination the biocides were formulated such that they could be mixed together (all the percentages are mass/mass):
Test solutions were prepared and sets of veneers were dip treated such that there were 6 replicate veneers for each treatment under investigation. Additionally six veneers were dip treated in deionised water to act as water controls. […] Plastic containers (approximately 350×220 mm by at least 60 mm high) were part filled with John Innes Number 2 potting compost at a little above its water holding capacity. The veneers for this particular test were placed in six rows within a container such that approximately half the veneer was below the compost and half above. The veneers were placed in the compost such than those given a particular treatment were distributed throughout the container and were not grouped together. The containers, compost and veneers were weighed then incubated at about 30° C. and near 100% relative humidity in an incubator. Each week during the test the assembly was reweighed and deionised water added to bring it back to its original mass. After 3 weeks each veneer was examined in turn. It was held between the fore finger and thumb at each end and pulled to see if it could be broken. If it could be pulled apart a failure was recorded.

[1] = unnumbered table, additive expectation
[2] = Example 5, solutions in acetone
[3] = Example 3, solutions in IMS (alcohol)

Row | Compound | half life, Low level with 0.8% Imazalil sulfate (unnumbered table) | expected half life, Low level with 0.8% Imazalil sulfate [1] | half life, High level (1.6%) (unnumbered table) | half life, Low level (0.8%) (unnumbered table) | average time for failure to occur (half life), combination with imazalil sulfate | estimated expected average time for failure, combination with imazalil sulfate (additive expectation) | average time for failure to occur (half life) | synergy of the combination with imazalil sulfate | further results
1 | O=C(Nc1ccccc1)c1ccccc1O [Salicylanilide, 2-hydroxy-N-phenylbenzamide] | 6.50 weeks | {6.34 weeks} | 5.67 weeks | 4.83 weeks |  |  |  |  | 
2 | N#Cc1c(Cl)c(Cl)c(Cl)c(C#N)c1Cl [Chlorothalonil, tetrachloroisophthalonitrile] |  |  |  |  |  |  |  |  | estimated expected half life for 1% fungicide plus 1% Imazalil (Example 5, additive expectation): {9.92 weeks}; Half life for 1% fungicide plus 1% Imazalil [2]: 10.67 weeks; Half life for fungicide at 2% ai [2]: 12.17 weeks
3 | Oc1cc(Cl)ccc1Oc1ccc(Cl)cc1Cl [Trichlosan, 5-chloro-2-(2,4-dichlorophenoxy)phenol] |  |  |  |  | 5.50 weeks | (4.75) weeks | ~4.33 weeks | positive synergy | 
4 | alkyl dimethyl benzyl ammonium chloride [BAC] | 6.00 weeks | {592 weeks} | 4.83 weeks | 4.67 weeks |  |  |  |  | estimated expected half life for 1% fungicide plus 1% Imazalil sulfate (Example 3, additive expectation): 5.59 weeks; Half life for 1% fungicide plus 1% Imazalil sulfate [3]: 6.17 weeks; Half life for fungicide at 2% active ingredient (ai) [3]: 5.17 weeks
5 | OC(c1ccc(Cl)cc1)(c1cncnc1)c1ccccc1Cl (racemic) [Fenarimol, (±)-2,4′-dichloro-α-(pyrimidin-5-yl)benzhydryl alcohol] |  |  |  |  | 6.67 weeks | (6.17) weeks | 7.17 weeks | positive synergy | half life, Low level with 0.8% Imazalil sulfate: 6.67 weeks; half life, High level (1.6%): 5.00 weeks; half life, Low level (0.8%): 4.50 weeks
6 | OB(O)O [Boric acid] | 5.33 weeks | {5.57 weeks} | 4.50 weeks | 3.83 weeks |  |  |  |  | 
